Four molecules from US20240216289A1, “LIPIDOID NANOPARTICLES FOR THE TREATMENT OF DISEASES AND DISORDERS” (Trustees of Tufts College, priority 2021, published 2024) can be followed below.

“Also recorded” adds a separate entry of the source.

One data set deals with inguinal lymph nodes. Kind of data set: Luc mRNA expression in inguinal lymph nodes after subcutaneous tail-base injection of LNP/mLuc (IVIS). Format: in vivo, Balb/c mice. The note with it: subcutaneous at tail base, 6 h, bioluminescence.
In data set [1] the test system is liver. Kind of data set: Luc mRNA expression in liver after subcutaneous tail-base injection of LNP/mLuc (IVIS). Format: in vivo, Balb/c mice. The conditions noted are these: subcutaneous at tail base, 6 h, bioluminescence.
Data set [2] deals with macrophages and dendritic cells (DCs) in inguinal lymph nodes. Briefly: Delivery of Cre mRNA to LNs in Ai14 reporter mice (tdTomato positive cells, flow cytometry). Type of data set: in vivo. The conditions noted are these: LNP/Cre mRNA s.c., 48 h; result in words.
A further data set has as its system OVA. Briefly: ELISA for antibody titer after OVA mRNA vaccination. Type of data set: in vivo. The conditions noted are these: 14 days after second dose. (ELISA stands for enzyme-linked immunosorbent assay.)
For the next data set, the system named is HEK293T cells. Briefly: 5′UTR and 3′UTR optimization in HEK293T cells (eGFP, flow cytometry). Format: cell-based. The conditions noted are these: LPF2k. As to the method: 5′UTR optimization in HEK293T cells. Prior to transfection, HEK293T cells were seeded on a 48-well plate at 40,000 cells/well, with 500 μL DMEM culture in each well. 6 groups were set with different treatments: Lipofectamine 2000 (LPF2k) only, pcDNA3.0-eGFP, pcDNA3.0-NCA7d-eGFP, pcDNA-70nt-eGFP, pcDNA3.0-Ces1d-eGFP and pcDNA3.0-S27a45′-eGFP. LPF2k was complexed each plasmid in equal amount (0.5 μg/0.5 μg) before being added to each well. At each time point (36 hrs, 60 hrs, 84 hrs and 108 hrs), cells were washed with PBS and then treated with 500 μL 0.25% Typsine-EDTA 10 (Gibco) for 3 min. Resuspended cells were applied to the Attune NxT Flow Cytometer (Thermo Fisher) directly (FIG. 10).
3′UTR optimization in HEK293T cell. Similar to 5′UTR optimization, thirteen 3′UTRs modified pcDNA3.0-Ces1d-eGFP and pcDNA3.0-70nt-eGFP were encapsulated in LPF2k at a 1:1 weight ratio and then transfected into HEK293T cells. At each time point (48 hrs, 72 hrs, 96 hrs and 120 hrs), cells were washed with PBS and then treated with 500 μL 0.25% Typsine-EDTA (Gibco) for 3 min. Resuspended cell were applied to the Attune NxT Flow Cytometer (Thermo Fisher) directly (FIG. 11).

Data set [3] relates to liver. Briefly: Mouse liver-directed 3′UTR and cap screening in mRNA format (L88 LNP, IVIS). Type of data set: in vivo, BALB/c mice. The note with it: Lipid 88 delivery, 0.2 mg/kg IV. As to the method:
Mouse liver-directed 3′UTR screening in mRNA format. 6-week-old female BALB/c mice were used for in vivo modified Fluc-eGFP mRNA screening with L88 LNP delivery. Each UTRs modified Fluc-eGFP mRNA were encapsulated in an optimal Lipid 88 formulation (L88:Chol:DOPC:DMG-PEG=16:4:2:1, w w) at the weight ratio of 1:10 in PBS solution (RNase-free). The L88/Fluc-eGFP mRNA complex was intravenously injected into the mice at a mRNA dose of 0.2 mg/kg. At each preset time point, mice were injected with 100 μL of D-Luciferin potassium salt (GoldBio) solution (15 mg/mL in PBS), anesthetized under isoflurane anesthesia, and evaluated using IVIS imaging system (Caliper Life Sciences, US).

Data set [4] concerns IFN γ and IL-4 positive T cells. Kind of data set: IFN γ and IL-4 ELISpot after S protein mRNA vaccination. The note with it: spleen day 28. Type of data set: in vivo, mice.
Method: The blood and spleen were collected at day 28 for further analysis.
The T cell response after the vaccination was analyzed by IFN γ and IL-4 ELISpot (FIGS. 5A-C).
The T cell response after vaccination was tested by ELISpot assay.

As for `CCCCCCCCC(CCCCCC)C(=O)OCCCCCCN(CCCCO)CCCCCCOC(=O)C(CCCCCC)CCCCCCCC` (stereo not shown) [ALC-0315], the “Luc mRNA expression in inguinal (draining) lymph nodes” value in the data set with inguinal lymph nodes is listed as “obvious signal in draining LNs”. Also, the “Luc mRNA expression in liver” value with liver [1] is “significantly increased expression of Luc in liver; also recorded: significantly higher expression in liver”. The “transfection of cells in inguinal lymph nodes” value in data set [2] is listed as “less efficacy compared with 113-F2 LNP; also recorded: successfully delivered Cre mRNA to antigen-presenting cells (APC)”. The “antibody response (total IgG, IgG1, IgG2c)” value in the data set with OVA was “peak antibody level”.
In the case of Apolipoprotein A-II, the “eGFP expression, 3′UTR in pcDNA3.0-70nt-eGFP” value with HEK293T cells (48-120 hrs) is recorded as “top-performing 3′UTR candidates”. The “ARCA capped 70nt-Fluc-eGFP mRNA Fluc expression in the liver” value in the data set with liver [3] is listed as “highest Fluc expression in the liver relative to other eight 3′UTR modifications”.
With Pam3CSK4, the “Luc mRNA expression in inguinal (draining) lymph nodes” value in the data set on inguinal lymph nodes was “decreased the mRNA expression in draining lymph nodes”. For the same molecule, the “transfection of cells in inguinal lymph nodes” value in data set [2] is given as “decreased the transfection efficacy”. In data set [4], the “IL-4 positive T cells (ELISpot)” value is “increased the Th1 T cell response and percentage of IL-4 secreting T cells; also recorded: significantly induced IL-4 secreting T cells compared with all other groups”.

B1: Ces1d: 5′UTR fragment, sequence in Table 1 (nucleic acid)
DNA: CCACTAGTTCTAGAGGTACCTTGGACCCTCGTACAGAAGCTAATACGACTCACTATAAGGAGGCGGGTCCCCTGGTCCACAACAGAAGCATTGCTAAAGCAGCAGATAGCTCAGAGACCCACAGAGCCCTTGTCCTTCCACAGAATTCGCCACCATGGAAGA
Turning to B1, in the data set with HEK293T cells (36-108 hrs), the “eGFP expression, 5′UTR in pcDNA3.0-eGFP” value was “top-performing 5′UTR candidates”.
